Measured values: US20180179129A1, “SOLVENT COMPOSITIONS FOR USE AS HEXANE REPLACEMENTS” (TBF ENVIRONMENTAL TECHNOLOGY INC., priority 2015, published 2018)

Experiments:
[1] = Performance test: solvency of SU100S resin; format: physicochemical; details: scale 1 = completely insoluble, 10 = completely soluble, >=6 soluble; 0.5 mL, ~40 mg resin, 22° C., 1 hour
Method: (§1) Several compounds were combined in different initial blends (Table 1). Standardized performance tests on solvency of a variety of resins, including (but not limited to) Kraton resins G1652, KR1164, KR1171, and G1726, Sukorez resin SU100S, and paraffin wax.
(§2) The performance tests on resins were performed as follows: The addition of 0.5 mL of each formulation to an individual screw-cap vial containing a stirbar and resin (G1652: ˜20 mg, SU100S: ˜40 mg, G1726: ˜25 mg, KR1164: ˜20 mg, KR1171, ˜20 mg, paraffin wax: ˜55 mg). The vials were tightly capped and solutions were stirred on a stirplate (400 rpm) at 22° C. for 1 hour. The stirbar was removed and solvency was observed, photos of the results were taken (Formulations 1-27, G1652 and SU100S). The odor of the blends was also tested empirically. Evaporation rates were calculated based on weight averages (% by volume) of individual components.

[2] = Performance test: solvency of G1652 resin; format: physicochemical; details: scale 1 = completely insoluble, 10 = completely soluble, >=6 soluble; 0.5 mL, ~20 mg resin, 22° C., 1 hour
Method: as §1, §2

[3] = cited from earlier work

Compound | SU100S solvency [1] | G1652 solvency [2] | stability ([3]; in the presence of strong aqueous bases or aqueous acids) | solubility in water ([3]; room temperature)
FC(F)(F)c1ccc(Cl)cc1 [Formulation 26, para-chlorobenzotrifluoride] | 10 | 10 | – | –
CCCCCC [Formulation 27, hexanes] | 10 | 10 | – | –
COC(C)=O [Methyl acetate] | – | – | not stable | 25%
